Test system: rabbit skeletal myofibrils (approximately 90% fast fibers)
Test: Activation of fast skeletal myofibrils (PUMA coupled-enzyme ATPase assay at pCa25)
Format: biochemical
Settings: concentration at which the compound increased the enzymatic activity by 40%; calcium at pCa25; PM12 buffer pH 6.8
Summary of the method: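 In pH 6.8 PM12 buffer (12 mM Pipes, 2 mM MgCl2, 1 mM DTT), ADP from myosin regenerated via pyruvate kinase/lactate dehydrogenase, with absorbance change at 340 nm from NADH oxidation as read-out. Calcium set at pCa25; Triton-washed rabbit skeletal myofibrils (about 90% fast fibres) used.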

Row | Mean AC1.4 | SMILES
1 | D (D=>20 uM) | Oc1ncc(-c2cnc(NC[C@]3(c4ncccc4F)C[C@H](F)C3)nc2)cn1 [5-[2-({[3-fluoro-1-(3-fluoro(2-pyridyl))cyclobutyl]methyl}amino)pyrimidin-5-yl]pyrimidin-2-ol]
2 | D (D=>20 uM) | CC(C)(Nc1ncc(-c2cn3cc(C(N)=O)sc3n2)cn1)c1ncccc1Cl [6-(2-{[1-(3-chloro(2-pyridyl))-isopropyl}amino}pyrimidin-5-yl) imidazo[2,1-b]1,3-thiazoline-2-carboxamide]
3 | B (B=1-10 uM) | Cc1nc(NC[C@]2(c3ncccc3F)C[C@H](F)C2)ncc1-c1ccc(CC(N)=O)cc1 [2-{4-[2-({[3-fluoro-1-(3-fluoro(2-pyridyl))cyclobutyl]methyl}amino)-4-methylpyrimidin-5-yl]phenyl}acetamide]
4 | B (B=1-10 uM) | CC(C)(Nc1ncc(-c2csc(C(N)=O)c2)cn1)c1ncccc1Cl [4-(2-{[1-(3-chloro(2-pyridyl))-isopropyl]amino}pyrimidin-5-yl)thiophene-2-carboxamide]
5 | D (D=>20 uM) | CC(C)(Nc1ncc(-c2ncc(CNC(=O)[C@H]3CCCN3)s2)cn1)c1ncccc1F [((2R)pyrrolidin1-2-yl)-N-{[2-(2-{[1-(3-fluoro(2-pyridyl))-isopropyl]amino}pyrimidin-5-yl)(1,3-thiazol-5-yl)]methyl}carboxamide]
6 | B (B=1-10 uM) | CC(C)(Nc1ncc(-c2cn3c(C(=O)O)csc3n2)cn1)c1ncccc1Cl
7 | D (D=>20 uM) | CC(=O)NCc1cnc(-c2cnc(NC(C)(C)c3ncccc3F)nc2)s1 [N-{[2-(2-{[1-(3-fluoro(2-pyridyl))-isopropyl]amino}pyrimidin-5-yl)-1,3-thiazol-5-yl]methyl}acetamide]
8 | A (A=<1 uM) | NC(=O)c1ccn(-c2cnc(NC[C@]3(c4ncccc4F)C[C@H](F)C3)nc2)c1 [1-[2-({[3-fluoro-1-(3-fluoro(2-pyridyl))cyclobutyl]methyl}amino)pyrimidin-5-yl]pyrrole-3-carboxamide]
9 | B (B=1-10 uM) | O=C(Nc1ccon1)c1cnc(NCC2(c3ncccc3F)CCC2)nc1 [[2-({[(3-fluoro(2-pyridyl))cyclobutyl]methyl}amino)pyrimidin-5-yl]-N-isoxazol-3-ylcarboxamide]
10 | D (D=>20 uM) | Cc1nc(NC[C@]2(c3ncccc3F)C[C@H](F)C2)ncc1-c1ccc(C#N)cc1 [4-[2-({[3-fluoro-1-(3-fluoro(2-pyridyl))cyclobutyl]methyl}amino)-4-methylpyrimidin-5-yl]benzenecarbonitrile]
11 | B (B=1-10 uM) | NC(=O)c1ccc(C(N)=O)c(-c2cnc(NC[C@]3(c4ncccc4F)C[C@H](F)C3)nc2)c1 [2-[2-({[3-fluoro-1-(3-fluoro(2-pyridyl))cyclobutyl)]methyl}amino) pyrimidin-5-yl]benzene-1,4-dicarboxamide]
12 | D (D=>20 uM) | O=C(NCCO)c1cnc(NCC2(c3ncccc3F)CCC2)nc1 [[2-({[(3-fluoro(2-pyridyl))cyclobutyl]methyl}amino)pyrimdin-5-yl]-N-(2-hydroxyethyl)carboxamide]
13 | B (B=1-10 uM) | CC(C)(Nc1ncc(-n2cc(CNC(=O)CN)cn2)cn1)c1ncccc1Cl [2-amino-N-{[1-(2-{[1-(3-chloro(2-pyridyl))-isopropyl]amino)pyrimidin-5-yl)pyrazol-4-yl]methyl]acetamide]
14 | A (A=<1 uM) | NC(=O)c1cnc(-c2cnc(NCC3(c4ncccc4F)CCC3)nc2)s1 [2-[2-({[(3-fluoro-2-pyridyl)cyclobutyl]methyl}amino)pyrimidin-5-yl]-1,3-thiazole-5-carboxamide]
15 | C (C=10-20 uM) | CC(C)(Nc1ncc(-c2cccc(C(N)=O)n2)cn1)c1ncccc1Cl [6-(2-{[1-(3-chloro(2-pyridyl))-isopropyl]amino}pyrimidin-5-yl)pyridine-2-carboxamide]
16 | B (B=1-10 uM) | NC(=O)c1cccc(-c2cnc(NC[C@]3(c4ncccc4F)C[C@H](F)C3)nc2O)c1 [3-[2-({[3-fluoro-1-(3-fluoro(2-pyridyl))cyclobutyl]methyl}amino)-4-hydroxypyrimidin-5-yl]benzamide]
17 | D (D=>20 uM) | O=C(Nc1cccc(F)c1)c1cnc(NCC2(c3ncccc3F)CCC2)nc1 [[2-({[(3-fluoro(2-pyridyl))cyclobutyl]methyl}amino)pyrimidin-5-yl]-N-(3-fluorophenyl)carboxamide]
18 | B (B=1-10 uM) | N#CCc1cnc(-c2cnc(NCC3(c4ncccc4F)CCC3)nc2)s1 [2-{2-[2-({[(3-fluoro-2-pyridyl)cyclobutyl]methyl}amino)pyrimidin-5-yl]-1,3-thiazol-5-yl}ethanenitrile]

Row | Mean AC1.4 | SMILES
19 | D (D=>20 uM) | Fc1cccnc1C1(Nc2ncc3ccccc3n2)CCC1 [[(3-fluoro(2-pyridyl))cyclobutyl]quinazolin-2-ylamine]
20 | D (D=>20 uM) | Oc1ccc(-c2cnc(NC[C@]3(c4ncccc4F)C[C@H](F)C3)nc2)nn1 [6-[2-({[3-fluoro-1-(3-fluoro(2-pyridyl))cyclobutyl]methyl}amino)pyrimidin-5-yl]pyridazin-3-ol]
21 | D (D=>20 uM) | COCCNc1nc(NC[C@]2(c3ncccc3F)C[C@H](F)C2)ncc1-c1ccccc1 [[2-({[3-fluoro-1-(3-fluoro(2-pyridyl))cyclobutyl]methyl}amino-5-phenylpyrimidin-4-yl](2-methoxyethyl)amine]
22 | A (A=<1 uM) | CC(C)(Nc1ncc(-c2ccc3[nH]nc(N)c3c2)cn1)c1ncccc1F [[5-(3-amino(1H-indazol-5-yl))pyrimidin-2-yl][1-(3-fluoro(2-pyridyl))-isopropyl]amine]
23 | D (D=>20 uM) | CNc1nc(NC[C@]2(c3ncccc3F)C[C@H](F)C2)ncc1-c1ccccc1 [{[3-fluoro-1-(3-fluoro(2-pyridyl))cyclobutyl]methyl}[4-(methylamino)-5-phenylpyrimidin-2-yl]amine]
24 | B (B=1-10 uM) | Cc1cccnc1C(C)(C)Nc1ncc(-c2cc(C(N)=O)ccc2F)cn1 [4-fluoro-3-(2-{[1-methyl-1-(3-methyl(2-pyridyl))ethyl]amino}pyrimidin-5-yl)benzamide]
25 | C (C=10-20 uM) | Nc1nccc(-c2cnc(NC[C@]3(c4ncccc4F)C[C@H](F)C3)nc2)n1 [[5-(2-aminopyrimidin-4-yl)pyrimidin-2-yl]{[3-fluoro-1-(3-fluoro(2-pyridyl))cyclobutyl]methyl)amine]
26 | D (D=>20 uM) | CC(C)(Nc1ncc(-c2ncc(CN)s2)cn1)c1ncccc1Cl [{5-[5-(aminomethyl)(1,3-thiazol-2-yl)]pyrimidin-2-yl}[1-(3-chloro(2-pyridyl))-isopropyl]amine]
27 | B (B=1-10 uM) | Oc1cnc(-c2cnc(NC[C@]3(c4ncccc4F)C[C@H](F)C3)nc2)c(F)c1 [5-fluoro-6-[2-(([3-fluoro-1-(3-fluoro(2-pyridyl))cyclobutyl]methyl}amino)pyrimidin-5-yl]pyridin-3-ol]
28 | B (B=1-10 uM) | CC(=O)Nc1n[nH]c2ccc(-c3cnc(NC(C)(C)c4ncccc4Cl)nc3)cc12 [N-[5-(2-{[1-(3-chloro(2-pyridyl))-isopropyl]amina}pyrimidin-5-yl)-1H-indazol-3-yl]acetamide]
29 | B (B=1-10 uM) | O=c1cc(-c2cnc(NC[C@]3(c4ncccc4F)C[C@H](F)C3)nc2)[nH]c(=O)[nH]1 [6-[2-({[3-fluoro-1-(3-fluoro(2-pyridyl))cyclobutyl]methyl}amino)pyrimidin-5-yl]-1,3-dihydropyrimidine-2,4-dione]
30 | C (C=10-20 uM) | CC(C)(O)C(=O)NCc1cnc(-c2cnc(NC(C)(C)c3ncccc3Cl)nc2)s1 [N-{[2-(2-{[1-(3-chloro(2-pyridyl))-isopropyl}amino}pyrimidin-5-yl)(1,3-thiazol-5-yl)]methyl]-2-hydroxy-2-methylpropanamide]
31 | B (B=1-10 uM) | CC(C)(Nc1ncc(-c2cc(CC(N)=O)ccc2F)cn1)c1ncccc1F [2-[4-fluoro-3-(2-{[1-(3-fluoro(2-pyridyl))-isopropyl]amino}pyrimidin-5-yl)phenyl]acetamide]
32 | D (D=>20 uM) | NC(=O)c1cnc(NC2(c3ccc(F)cc3)CCC2)nc1 [2-{[(4-fluorophenyl)cyclobutyl]amino} pyrimidine-5-carboxamide]
33 | C (C=10-20 uM) | Nc1ccnn1C(=O)c1cnc(NCC2(c3ncccc3F)CCC2)nc1 [5-aminopyrazolyl 2-({[(3-fluoro(2-pyridyl))cyclobutyl]methyl}amino) pyrimidin-5-yl ketone]
34 | D (D=>20 uM) | O=C(Nc1ccc(F)cc1)c1cnc(NCC2(c3ncccc3F)CCC2)nc1 [[2-({[(3-fluoro(2-pyridyl))cyclobutyl]methyl}amino)pyrimidin-5-yl]-N-(4-fluorophenyl)carboxamide]
35 | B (B=1-10 uM) | CSc1cccnc1C(C)(C)Nc1ncc(-c2cccc(C#N)c2)cn1 [3-(2-{[1-methyl-1-(3-methylthio(2-pyridyl))ethyl]amino}pyrimidin-5-yl)benzenecarbonitrile]

Row | SMILES | Mean AC1.4
36 | CC(C)(C)OC(=O)NCCNC(=O)c1cnc(NCC2(c3ncccc3F)CCC2)nc1 [N-{2-[(tert-butoxy)carbonylamino]ethyl}[2-({[(3-fluoro(2-pyridyl))cyclobutyl]methyl}amino)pyrimidin-5-yl]carboxamide] | D (D=>20 uM)
37 | CC(C)(C)OC(=O)NCC(=O)NCc1cnn(-c2cnc(NC(C)(C)c3ncccc3Cl)nc2)c1 [2-[(tert-butoxy)carbonylamino]-N-{[1-(2-{[1-(3-chloro(2-pyridyl))-isopropyl]amino}pyrimidin-5-yl)pyrazol-4-yl]methyl}acetamide] | D (D=>20 uM)
38 | CC(C)(C)OC(=O)NCCC(=O)NCc1cnn(-c2cnc(NC(C)(C)c3ncccc3Cl)nc2)c1 [3-[(tert-butoxy)carbonylamino]-N-{[1-(2-{[1-(3-chloro(2-pyridyl))-isopropyl]amino}pyrimidin-5-yl)pyrazol-4-yl)]methyl}propanamide] | D (D=>20 uM)

Source: patent publication US11369565B2, “Amino-pyrimidine skeletal muscle modulators” (Cytokinetics, Inc., priority 2010, dated 2022)
